# Measured values published in patent US12502433B2, “Phosphonate-drug conjugates” (Massachusetts Eye and Ear Infirmary, priority 2016, dated 2025).
# Where two headings read alike, the source gives them in different places.
# Tests used:
# [1] = Hearing measurements (ABR, DPOAE) after RWM 6-FAM-ZOL; type: in vivo, guinea pig
# Description: Acoustic stimuli were digitally generated and auditory responses were monitored using a National Instruments PXI stimulus generation/data acquisition system, which included a 24 bit digital I-O board (PXI-4461) and a 16 bit digital I-O board (PXI-6221) and the Eaton Peabody Laboratories Cochlear Function Test Suite. To elicit the auditory brainstem responses (ABRs) and the compound action potentials (CAPs), 5 ms tone pip stimuli were used with 0.5 ms rise/fall times (cosine squared) in alternating polarity at 33/s.
# Acoustic stimuli were delivered via a custom acoustic assembly comprising two dynamic drivers as sound sources and a miniature electret microphone to measure sound pressure in situ (for a complete description, see e.g., http://www.masseyeandear.org/research/otolaryngology/investigators/laboratories/eaton-peabody-laboratories/ep1-engineering-resources). The response from the electrodes was amplified (10,000×), filtered (0.3-3 kHz bandpass), and averaged (512 samples at each frequency-level combination for ABRs and 128 samples for CAPs).
# ABRs were recorded via subdermal needle electrodes (vertex—ventrolateral to the pinna of the test ear with a ground at the base of the tail). The CAPs electrode was located near the round window niche. […]
# Distortion product otoacoustic emissions (DPOAEs) were recorded for primary tones (f1, f2) over the same f2 range of frequencies, with a frequency ratio of 1.2, and with the level of the f2 primary 10 dB less than f1 level. […]
# Distortion product otoacoustic emissions (DPOAEs) and auditory brainstem responses (ABRs) were measured in the systemic and round window membrane (RWM) delivery experiments. […] Hearing was measured at 2.78, 4, 5.6, 8, 12, 16, 24, and 32 kHz.
# The round window was visualized via a bullectomy approach and the beads were placed within the round window membrane (RWM) niche under direct microscopic visualization. […] DPOAEs and ABRs were first measured while animals were under anesthesia prior to bullectomy and again prior to analysis.
# [2] = 6-FAM-ZOL infusion into the scala tympani via cochleostomy: cochlear fluorescence; type: in vivo, guinea pig
# Experimental: All animals were therefore analyzed after maximal bisphosphonate deposition. […] Intracochlear delivery animals were analyzed at 3 hours as this timepoint allowed for high levels of delivery while avoiding the potential long-term effects of a cochleostomy.
# The inner ears were harvested and stripped of soft tissue. All subsequent steps were performed in covered vials to prevent 6-FAM-ZOL bleaching. Specimens were fixed in an excess volume of neutral buffered formalin (10%, Fisher Scientific, Pittsburgh PA) at room temperature for 24 hours. The neutral buffered formalin was changed and fixation continued for another 24 hours. To prepare for resin embedding, specimens were dehydrated in an ascending series of ethanol (Fisher Scientific, 24 hr at 70%, 1 hr at 70%, 1 hr at 85%, 0.5 hr at 95%, 0.5 hr at 100%) followed by a wash in xylene (Fisher Scientific) and a 15 minute immersion in xylene. Specimens were cleared of xylene by a 1 hour infiltration in methyl methacrylate (MMA, Acrylosin soft, Dorn and Hart, Villa Park, IL) under vacuum. The MMA solution was changed and samples were infiltrated for 24 hours under vacuum. The infiltration solution was changed and the process was repeated for another 24 hours. Specimens were embedded in a solution of MMA containing 0.25% w/v (2.5 g/L) of perkadox-16 (Dom and Hart) for several hours under vacuum. […]
# High-resolution images (1360 by 1024; 16 bit) were taken under FITC illumination (470/40 excitation, 4951p dicroic; 525/50 emission) using a Carl Zeiss Axiovert 200 Inverted Microscope. ImageJ (Rasband WS, ImageJ, United States National Institutes of Health, Bethesda, Maryland, USA, 1997-2014) was used to quantify the amount of fluorescence within the cochlear wall and modiolus at each half-turn, as shown in FIG. 1. Background fluorescence, defined as the average amount of fluorescence in an area of the resin block containing no sample, was subtracted from all measurements. […] Confocal images were collected over a depth of 500 μm to generate maximum fluorescence images. […]
# [3] = Human temporal bone model: 6-FAM-ZOL delivery through the oval window
# Experimental: 6-FAM-ZOL was synthesized as described in Example 4 and was dissolved in artificial perilymph (AP) at a concentration of 10 μg/μL. The content of AP (pH 7.4) was 130 mM NaCl, 3.5 mM KCl, 1.5 mM CaCl2, 5.5 mM glucose, and 20 mM HEPES.
# Six freshly harvested cadaveric human temporal bones, which were obtained within 24 hours after death by the human temporal bone histopathology lab at Massachusetts Eye and Ear Infirmary, were used. The Pathology Quality Assurance Committee at Massachusetts General Hospital approved procurement of the specimens. The squamous and mastoid portions were drilled away, leaving the labyrinth. In three temporal bones, 1 μL of 10 μg/μL 6-FAM-ZOL was injected through the OW using a micropipette after lifting the stapes footplate. The footplate was then carefully laid back down. […]
# Images (1024 by 1024; 8 bit) were collected using a Leica TCS-SP2 confocal microscope to generate maximum fluorescence images. To identify the surface of each specimen, the point of maximum fluorescence in the z-axis was first identified. A stack of images was then collected to a depth of 500 μm from the point of maximum fluorescence. […] ImageJ was used to quantify the amount of fluorescence associated with the labeled bisphosphonate within the lateral cochlear wall and the modiolus of the scala vestibuli and scala tympani at each half-turn, as shown in FIG. 11. […]
# [4] = type: in vivo
# Experimental: Male albino guinea pigs (Hartley strain; Charles River Laboratories, Inc., Wilmington, MA), each weighing approximately 350 g, were used. Nembutal (12.5 mg/kg intraperitoneally), Fentanyl (0.1 mg/kg intramuscularly), and Droperidol (5 mg/kg intramuscularly) were given for anesthesia. Supplemental doses of 0.7 mg/kg Fentanyl and 3.0 mg/kg Droperidol alternating with 6.25 mg/kg Nembutal were administered as needed. Animals were euthanized using pentobarbital (Fatal-Plus) at 390 mg/kg. The Massachusetts Eye and Ear Infirmary Institutional Animal Care and Use Committee approved all procedures.
# All animals were therefore analyzed after maximal bisphosphonate deposition. Systemic delivery animals were analyzed at 48 hrs to account for potential differences between IP (our system) and IV (human) delivery.
# The inner ears were harvested and stripped of soft tissue. All subsequent steps were performed in covered vials to prevent 6-FAM-ZOL bleaching. Specimens were fixed in an excess volume of neutral buffered formalin (10%, Fisher Scientific, Pittsburgh PA) at room temperature for 24 hours. The neutral buffered formalin was changed and fixation continued for another 24 hours. To prepare for resin embedding, specimens were dehydrated in an ascending series of ethanol (Fisher Scientific, 24 hr at 70%, 1 hr at 70%, 1 hr at 85%, 0.5 hr at 95%, 0.5 hr at 100%) followed by a wash in xylene (Fisher Scientific) and a 15 minute immersion in xylene. Specimens were cleared of xylene by a 1 hour infiltration in methyl methacrylate (MMA, Acrylosin soft, Dorn and Hart, Villa Park, IL) under vacuum. The MMA solution was changed and samples were infiltrated for 24 hours under vacuum. The infiltration solution was changed and the process was repeated for another 24 hours. Specimens were embedded in a solution of MMA containing 0.25% w/v (2.5 g/L) of perkadox-16 (Dom and Hart) for several hours under vacuum. After several hours, specimens were sealed in 50 mL polypropylene tubes and maintained at room temperature in a heat sink until fully cured (approximately 5 days).
# Sections were prepared for fluorescent imaging by orienting and grinding the sample surface to the level of the mid-modiolus. Surfaces were polished on a 12″ table mounted rotary wheel using water and a progressively finer series of silicon carbide abrasive papers ending with 2400 grit (Buehler, Lake Bluff, 11).
# High-resolution images (1360 by 1024; 16 bit) were taken under FITC illumination (470/40 excitation, 4951p dicroic; 525/50 emission) using a Carl Zeiss Axiovert 200 Inverted Microscope. ImageJ (Rasband WS, ImageJ, United States National Institutes of Health, Bethesda, Maryland, USA, 1997-2014) was used to quantify the amount of fluorescence within the cochlear wall and modiolus at each half-turn, as shown in FIG. 1. Background fluorescence, defined as the average amount of fluorescence in an area of the resin block containing no sample, was subtracted from all measurements. Fluorescence remained stable over at least two weeks after grinding if samples were kept in the dark at room temperature. Some images were also collected using a Leica TCS-SP2 confocal microscope. Confocal images were collected over a depth of 500 μm to generate maximum fluorescence images.
# Mixed model analysis of variance was used to analyze the effect of dose on fluorescent response in the cochlea.
# [5] = Hearing measurements (CAP, DPOAE) after cochleostomy infusion; type: in vivo, guinea pig
# Experimental: For the cochleostomy experiments, compound action potentials (CAPs) from the auditory nerve were substituted for ABRs.
# A cochleostomy was performed approximately 0.5 mm distal to the round window via a bullectomy approach and the PTFE tubing was inserted into the scala tympani. Dental cement was used to seal the cochleostomy around the tubing. Infusion was performed at 1 μL over one minute, five times, spaced nine minutes apart. Control animals were treated with AP alone; 0.02× dosage animals were infused with 6-FAM-ZOL at 0.25 μg/μL; and 0.04× dosage animals were infused with 6-FAM-ZOL at 0.125 μg/μL+0.193 μg/μL zoledronate (total 4% of the 1× human zoledronate dose by molar weight). DPOAEs and CAPs were measured at time 0 (i.e., after cannula insertion and prior to infusion) and at 3 hrs. In independent experiments, three control animals were treated with AP alone, four animals were treated with AP containing 0.02× 6-FAM-ZOL, and three animals were treated with AP containing 0.04× 6-FAM-ZOL+zoledronate.
# [6] = Round window membrane (RWM) alginate bead delivery of 6-FAM-ZOL: cochlear fluorescence; type: in vivo, guinea pig
# Experimental: All animals were therefore analyzed after maximal bisphosphonate deposition. […] Round window delivery animals were analyzed at 3 weeks to allow middle ear inflammation to subside prior to hearing analysis and to account for transit across the RWM.
# The inner ears were harvested and stripped of soft tissue. All subsequent steps were performed in covered vials to prevent 6-FAM-ZOL bleaching. Specimens were fixed in an excess volume of neutral buffered formalin (10%, Fisher Scientific, Pittsburgh PA) at room temperature for 24 hours. The neutral buffered formalin was changed and fixation continued for another 24 hours. To prepare for resin embedding, specimens were dehydrated in an ascending series of ethanol (Fisher Scientific, 24 hr at 70%, 1 hr at 70%, 1 hr at 85%, 0.5 hr at 95%, 0.5 hr at 100%) followed by a wash in xylene (Fisher Scientific) and a 15 minute immersion in xylene. Specimens were cleared of xylene by a 1 hour infiltration in methyl methacrylate (MMA, Acrylosin soft, Dorn and Hart, Villa Park, IL) under vacuum. The MMA solution was changed and samples were infiltrated for 24 hours under vacuum. The infiltration solution was changed and the process was repeated for another 24 hours. […]
# High-resolution images (1360 by 1024; 16 bit) were taken under FITC illumination (470/40 excitation, 4951p dicroic; 525/50 emission) using a Carl Zeiss Axiovert 200 Inverted Microscope. ImageJ (Rasband WS, ImageJ, United States National Institutes of Health, Bethesda, Maryland, USA, 1997-2014) was used to quantify the amount of fluorescence within the cochlear wall and modiolus at each half-turn, as shown in FIG. 1. Background fluorescence, defined as the average amount of fluorescence in an area of the resin block containing no sample, was subtracted from all measurements. Fluorescence remained stable over at least two weeks after grinding if samples were kept in the dark at room temperature. […] Confocal images were collected over a depth of 500 μm to generate maximum fluorescence images. […]
# [7] = Hearing measurements (ABR, DPOAE) after systemic 6-FAM-ZOL; type: in vivo, guinea pig
# Experimental: ABRs were recorded via subdermal needle electrodes (vertex—ventrolateral to the pinna of the test ear with a ground at the base of the tail). The CAPs electrode was located near the round window niche. Sound level was incremented in 5 dB steps, from ˜10 dB below threshold to 90 dB sound pressure level (SPL). Threshold for ABRs and CAPs was defined as the lowest stimulus level at which a repeatable wave could be identified in the response waveform.
# Distortion product otoacoustic emissions (DPOAEs) were recorded for primary tones (f1, f2) over the same f2 range of frequencies, with a frequency ratio of 1.2, and with the level of the f2 primary 10 dB less than f1 level. Primaries were incremented together in 5 dB steps from −10 dB below threshold to 80 dB SPL. Ear-canal sound pressure was amplified and digitally sampled, FFTs were computed and averaged, and the 2f1-f2 DPOAE and surrounding noise floor were extracted. Iso-response contours were interpolated from plots of response amplitude vs. sound level. Threshold is defined as the f1 level required to produce a DPOAE of −5 dB SPL.
# Distortion product otoacoustic emissions (DPOAEs) and auditory brainstem responses (ABRs) were measured in the systemic and round window membrane (RWM) delivery experiments. […] Hearing was measured at 2.78, 4, 5.6, 8, 12, 16, 24, and 32 kHz. […]
# ribbon synapses = assay: Ribbon synapse regeneration in organ of Corti explants after kainic acid; type: cell-based; conditions: 400 nM after two hours kainic acid
# Experimental: To characterize the ability of DHF-RIS to regenerate ribbon synapses, a previously described organ of Corti explant system was used, wherein kainic acid was used to mimic excitotoxic damage to the ribbon synapse (see e.g., Wang et al, 7The Journal of Neuroscience: the official journal of the Society for Neuroscience, 2011, 31:7938-7949). Explants were treated with kainic acid for two hours to destroy synapses and then treated with 400 nM DHF, 400 nM RIS, or […] DHF-RIS (Example 1). Comparison was made with control samples not treated with kainic acid (KA−) and samples treated with kainic acid but no other drug (KA+). Synapses were detected by co-localization of CtBP2 and PSD95 as previously described and counted using the Amira program by an observer blinded to sample identity.
# [8] = humans, cited from earlier work
# SG neurites = assay: In vitro attraction of SG neurites after pre-binding to hydroxyapatite; type: cell-based
# Experimental: This assay was performed to confirm that the DHF moiety within DHF-RIS (Example 1) remained available to attract neurites from a distance after binding to hydroxyapatite, a mineral substitute for bone. In a modification of the data shown in FIG. 14A, a separate set of experiments was performed in which RIS-DHF was pre-bound to hydroxyapatite pellets. The pellets were washed with media, and plated along with SGN explants. To visualize the hydroxyapatite pellets, a small amount of 6-FAM-ZOL (Example 4) was added to all samples. It was observed that neurites traveled up to […] before ending on and overlapping with hydroxyapatite pellets, as shown in FIG. 14C.
# spiral ganglion neurons = assay: In vitro spiral ganglion neurite outgrowth; type: cell-based, CBA/CaJ pups; conditions: 400 nM, 48 hours
# Experimental: Cochleae were harvested from P3-4 CBA/CaJ pups, after which the spiral ganglion neurons were sharply dissected free in a clump of cells, divided into three roughly equal sections, and plated with fibronectin on Dulbecco's Modified Eagle's medium (DMEM). Individual sections were then treated with media alone, 400 nM DHF, 400 nM RIS, or 400 nM DHF-RIS (Example 1) for 48 hours. After fixing and immunostaining with TUJI, the neurites were visualized under confocal microscopy and the neurite length quantified using ImageJ.
# [9] = three weeks after placement on the RWM
# [10] = 1× systemic dose (0.185 mg/kg IP), 48 hrs
# [11] = control, 1× and 3× systemic doses
# [12] = 0.02× cochleostomy infusion, 3 hrs, relative to control animals
# [13] = systemic 1× and 3× doses, 48 hrs
smiles,measurement,setting,value
O=C(NCC(O)C[n+]1ccn(CC(O)(P(=O)(O)O)P(=O)(O)O)c1)c1ccc(C(=O)O)c(-c2c3ccc(=O)cc-3oc3cc(O)ccc23)c1 (stereo not drawn) [Example 6-FAM-ZOL],ototoxicity,[1]; local delivery onto the RWM,not ototoxic
same,ABR shift,[1]; [9],no shifts
same,DPOAE shift,[1]; [9],no shifts
same,total average fluorescence of the lateral wall vs control,[2]; 0.2× dose (so in the source),significantly greater
same,total average fluorescence of the modiolus vs control,[2]; 0.2× treatment (so in the source),significantly greater
same,fluorescent signal along osseous spiral lamina of the modiolus and lateral wall of the cochlea,"[2]; 2% (0.02×) of the 1× systemic dose, 3 hours",bright fluorescent signal
same,fluorescent signal in bony walls of the vestibular capsule and the cochlea,"[3]; 1 μL of 10 μg/μL through the oval window, 4 days",strong fluorescent signal
same,"effect of dose (6-FAM-ZOL vs artificial perilymph) on fluorescence, lateral wall and modiolus, scala vestibuli and scala tympani",[3]; all p<0.05,significant effect of dose
same,average fluorescence stronger in tibiae compared to cochleae,[4]; 1× systemic dose,50%
same,"average fluorescence above control, cochleae",[4]; [10],"approximately 5,800 fluorescence units"
same,"average fluorescence above control, tibiae",[4]; [10],"~8,800 fluorescence units"
same,fluorescence in lateral wall of cochleae,[4]; [11],increased with dose and the differences were statistically significant
same,fluorescence in tibiae,[4]; [11],dose-dependent and statistically significant
same,additional CAP shift,[5]; [12],10-15 dB
same,additional DPOAE shift,[5]; [12],10-15 dB
same,immediate ototoxicity,[5]; direct infusion into the cochlea,without significant immediate ototoxicity
same,cochlear fluorescence,"[6]; 0.1× dose on RWM, 3 weeks","lower, but still detectable"
same,delivery throughout the lateral wall of the cochlea (fluorescence),"[6]; 0.3× dose in alginate bead on RWM, 3 weeks",comparable to the 1× systemic dose
same,levels of fluorescence in modiolus and lateral wall vs control,[6]; RWM delivery 0.1× and 0.3×,significantly higher than the control
same,ABR change,[7]; [13],No significant physiological changes
same,DPOAE change,[7]; [13],No significant physiological changes
same,ototoxicity,[7]; systemic treatment,non-ototoxic
"O=P(O)(O)C(O)(Cc1cccnc1)P(=O)(O)O [RIS, reference compound]",regeneration of ribbon synapses,ribbon synapses,some ability to regenerate synapses
O=P(O)(O)C(O)(Cn1ccnc1)P(=O)(O)O [zoledronate],drug remaining in plasma,[8]; after 24 hours,less than 1%
same,plasma half-life,[8]; first of two half-lives,12 min
same,plasma half-life,[8]; second of two half-lives,84 min
O=C(CCOCCOCCOCCOCCNC(=O)c1ccc(-c2cc(=O)c3ccc(O)c(O)c3o2)cc1)NCC(O)C[n+]1cccc(CC(O)(P(=O)(O)O)P(=O)(O)O)c1 (stereo not drawn) [DHF-RIS],distance neurites traveled before ending on hydroxyapatite pellets,SG neurites; conjugate pre-bound to hydroxyapatite pellets,up to 400 μM
same,attraction of SG neurites after pre-binding to hydroxyapatite,SG neurites; in vitro,available to attract SG neurites
same,regeneration of ribbon synapses,ribbon synapses,"significant regeneration compared to non-rescued explants, although less than native DHF"
same,neurite outgrowth (neurite length),spiral ganglion neurons,significant outgrowth
